Measurements as given in patent publication US6358885B1, “Substituted phenylheterocyclic herbicides” (Mississippi State University, priority 1992, dated 2002).

Assays:
Test in all cases: Test B preemergence/postemergence greenhouse plant response rating 0 to 10
Settings in all cases: 0 to 10 scale
barley = assay type: in vivo, Hordeum vulgare
Excerpt: (§1) Seeds of barley (Hordeum vulgare), barnyardgrass (Echinochloa crus-galli), bedstraw (Galium aparine), blackgrass (Alopecurus myosuroides), […] (Bromus secalinus), chickweed (Stellaria media), cocklebur (Xanthium pensylvanicum), corn (Zea mays), cotton (Gossypium hirsutum), crabgrass (Digitaria spp.), giant foxtail (Setaria faberii), lambsquarters (Chenopodium album), morningglory (Ipomoea hederacea), rape (Brassica napus), rice (Oryza sativa), sorghum (Sorghum bicolor), soybean (Glycine max), sugar beet (Beta vulgaris), velvetleaf (Abutilon theophrasti), wheat (Triticum aestivum), wild buckwheat (Polygonum convolvulus), and wild oat (Avena fatua) and purple nutsedge. (Cyperus rotundus) tubers were planted and treated preemergence with test chemicals dissolved in a non-phytotoxic solvent. At the same time, these crop and weed species were also treated with postemergence applications of test chemicals. Plants ranged in height from two to eighteen cm (one to four leaf stage) for postemergence treatments. Treated plants and controls were maintained in a greenhouse for twelve to sixteen days, after which all species were compared to controls and visually evaluated. […] A dash (-) response means no test result.

bedstraw = assay type: in vivo, Galium aparine
Excerpt: as §1

blackgrass = assay type: in vivo, Alopecurus myosuroides
Excerpt: as §1

cheatgrass = assay type: in vivo, Bromus secalinus
Excerpt: as §1

chickweed = assay type: in vivo, Stellaria media
Excerpt: as §1

lambsquarters = assay type: in vivo, Chenopodium album
Excerpt: as §1

rape = assay type: in vivo, Brassica napus
Excerpt: as §1

sugar beet = assay type: in vivo, Beta vulgaris
Excerpt: as §1

wheat = assay type: in vivo, Triticum aestivum
Excerpt: as §1

wild buckwheat = assay type: in vivo, Polygonum convolvulus
Excerpt: as §1

wild oat = assay type: in vivo, Avena fatua
Excerpt: as §1

Fc1cc(Cl)c(-c2ccccc2)cc1-c1nn2c(c1Cl)CCCC2 [Compound 46]
Plant response rating, Barley (barley; POSTEMERGENCE, Rate 50 g/ha): 2
Plant response rating, Barley (barley; POSTEMERGENCE, Rate 200 g/ha): 3
Plant response rating, Barley (barley; PREEMERGENCE, Rate 50 g/ha): 0
Plant response rating, Barley (barley; Rate 200 g/ha, PREEMERGENCE): 0
Plant response rating, Bedstraw (bedstraw; POSTEMERGENCE, Rate 50 g/ha): 6
Plant response rating, Bedstraw (bedstraw; POSTEMERGENCE, Rate 200 g/ha): 8
Plant response rating, Bedstraw (bedstraw; PREEMERGENCE, Rate 50 g/ha): 0
Plant response rating, Bedstraw (bedstraw; Rate 200 g/ha, PREEMERGENCE): 2
Plant response rating, Blackgrass (blackgrass; POSTEMERGENCE, Rate 50 g/ha): 2
Plant response rating, Blackgrass (blackgrass; POSTEMERGENCE, Rate 200 g/ha): 3
Plant response rating, Blackgrass (blackgrass; PREEMERGENCE, Rate 50 g/ha): 0
Plant response rating, Blackgrass (blackgrass; Rate 200 g/ha, PREEMERGENCE): 0
Plant response rating, Cheatgrass (cheatgrass; POSTEMERGENCE, Rate 50 g/ha): 3
Plant response rating, Cheatgrass (cheatgrass; POSTEMERGENCE, Rate 200 g/ha): 4
Plant response rating, Cheatgrass (cheatgrass; PREEMERGENCE, Rate 50 g/ha): 0
Plant response rating, Cheatgrass (cheatgrass; Rate 200 g/ha, PREEMERGENCE): 0
Plant response rating, Chickweed (chickweed; POSTEMERGENCE, Rate 50 g/ha): 3
Plant response rating, Chickweed (chickweed; POSTEMERGENCE, Rate 200 g/ha): 3
Plant response rating, Chickweed (chickweed; PREEMERGENCE, Rate 50 g/ha): 0
Plant response rating, Chickweed (chickweed; Rate 200 g/ha, PREEMERGENCE): 2
Plant response rating, Lambsquarter (lambsquarters; POSTEMERGENCE, Rate 50 g/ha): 9
Plant response rating, Lambsquarter (lambsquarters; PREEMERGENCE, Rate 50 g/ha): 0
Plant response rating, Lambsquarter (lambsquarters; Rate 200 g/ha, POSTEMERGENCE): 10
Plant response rating, Lambsquarter (lambsquarters; Rate 200 g/ha, PREEMERGENCE): 9
Plant response rating, Rape (rape; POSTEMERGENCE, Rate 50 g/ha): 4
Plant response rating, Rape (rape; PREEMERGENCE, Rate 50 g/ha): 0
Plant response rating, Rape (rape; Rate 200 g/ha, POSTEMERGENCE): 4
Plant response rating, Rape (rape; Rate 200 g/ha, PREEMERGENCE): 0
Plant response rating, Sugar beet (sugar beet; POSTEMERGENCE, Rate 50 g/ha): 10
Plant response rating, Sugar beet (sugar beet; PREEMERGENCE, Rate 50 g/ha): 0
Plant response rating, Sugar beet (sugar beet; Rate 200 g/ha, POSTEMERGENCE): 9
Plant response rating, Sugar beet (sugar beet; Rate 200 g/ha, PREEMERGENCE): 7
Plant response rating, Wheat (wheat; POSTEMERGENCE, Rate 50 g/ha): 2
Plant response rating, Wheat (wheat; PREEMERGENCE, Rate 50 g/ha): 0
Plant response rating, Wheat (wheat; Rate 200 g/ha, POSTEMERGENCE): 3
Plant response rating, Wheat (wheat; Rate 200 g/ha, PREEMERGENCE): 0
Plant response rating, Wild buckwheat (wild buckwheat; POSTEMERGENCE, Rate 50 g/ha): 6
Plant response rating, Wild buckwheat (wild buckwheat; PREEMERGENCE, Rate 50 g/ha): 0
Plant response rating, Wild buckwheat (wild buckwheat; Rate 200 g/ha, POSTEMERGENCE): 10
Plant response rating, Wild buckwheat (wild buckwheat; Rate 200 g/ha, PREEMERGENCE): 4
Plant response rating, Wild oat (wild oat; POSTEMERGENCE, Rate 50 g/ha): 2
Plant response rating, Wild oat (wild oat; PREEMERGENCE, Rate 50 g/ha): 0
Plant response rating, Wild oat (wild oat; Rate 200 g/ha, POSTEMERGENCE): 2
